Results from US20250000942A1, “PEPTIDES AND METHODS OF TRANSPLANTATION AND RESTORATIVE ORGAN FUNCTION” (Prince Biotech, LLC, priority 2017, published 2025).

Legend:
Assay type in all cases: cell-based, human
JEG-3 cells [1] = assay: Effect of PIF and P4 on JEG-3 proteome (2-DE, spot analysis, mass spectrometry)
Protocol: Cell lysates and their protein concentration were prepared and assessed as previously described Frozen cell pellets were dissolved in hot lysis buffer (1% SDS, 100 mM Tris-HCl), and sonicated. Five percent of 2-mercaptoethanol was added. Samples were then dissolved in solubilisation buffer (8 M urea, 2.5 M thiourea, 4% 3-[(3-cholamidopropyl) dimethylammonio]-1-propanesuflate, 50 mM DTT, 24 mM spermine tetrachloride) at room temperature for 1 h. The samples were centrifuged at 12000×g for 30 min. To concentrate the protein samples, acetone precipitation was used. Once the supernatant was discarded the protein pellets were washed with a mixture of ice-cold methanol-chloroform and re-suspended in isoelectric focusing buffer (IEF) (8 M urea, 2.5 M thiourea, 4% 3-[(3-cholamidopropyl) dimethylammonio]-1-propanesuflate).
The IPG strips were then focused using an IPGphor system (BioRad, USA). Rehydrated filter wicks were placed between the electrodes and the IPG strip. […] After IEF, strips were rinsed in deionized water, and stored at −80° C. until the second dimensional […].
For second dimensional […], IPG strips were incubated in equilibrium buffer 1 [6 M/l urea, 20% w/v glycerol, 4% w/v SDS, 0.375 M/l Tris-HCL (pH 8.8), 5% 2-mercaptoethanol] for 15 min at room temperature. […] Strips were then rinsed in electrophoresis buffer (60.57 g Tris base, 288.27 g glycine, 20 g SDS, double distilled H2O up to 20 L). The second dimensional analysis was carried out using a Criterion gel system (Bio-Rad). Each strip was placed into the well of a 12% SDS-PAGE gel (Bio-Rad) and sealed with agarosc solution. Electrophoresis was carried out at 50 V for 30 min and following this at 150 V for 4-5 h. The gel was then fixed overnight in fixing solution (50% methanol, 5% acetic acid, 45% water), and stained using the silver staining protocol.
The gels were scanned and analyzed using SameSpots analysis software (Nonlinear dynamics Ltd). Digitized images from 12 silver-stained gels were analyzed for spot detection and quantification. Image analysis included spot detection, editing, background subtraction and spot matching. A master image was then created, and all spots in the other gels were matched to this master image both manually and digitally. The size of a protein, which approximates the volume of the spot, was calculated by using the software. Spots identified as differentially present were excised and analyzed using mass spectrometry (MS) analysis.
Identified spots were manually excised from the 2-DE gels using a disposable sterile scalpel spot cutter and washed in molecular biology grade water. Each spot was then subjected to in gel digestion alkylation, along with tryptic digestion so as to yield peptide fragments for MS analysis following previously described protocols.
Peptide digests were subjected to MS analysis at the sub-picomole level through the use of a matrix assisted laser desorption ionization-time of flight (MALDI-TOF MS) so as to generate peptide mass fingerprinting (PMF). The MALDI-TOF analysis was carried out using a Bruker Daltonics Reflex IV instrument using a linear mode with a laser power attenuation setting at 30, as described previously.
The expression data were pre-processed by mean-centering (by division and medians), and over median normalized data. A heatmap was generated via hierarchical clustering for examining protein expression and treatment (http://cran.r-project.org). The generation of a heatmap for median centered protein expression data with horizontal hierarchical clustering of different proteins utilized the median linkage agglomeration method and vertical hierarchical clustering of treatment conditions, using complete linkage agglomeration. A correlation distance metric was used for clustering data.

JEG-3 cells [2] = assay: ELISA for cytokine secretion by JEG-3 cells; details: JEG-3, serum-free media, 24 hours, P4 1 μg/ml
Protocol: At the end of the experiments the supernatant was collected and analyzed for cytokine levels. The concentrations of tumor necrosis factor alpha (TNF-a), interleukin (IL)-1, IL-8, IL-10, interferon gamma (IFN-γ), transforming growth factor beta 1 (TGF-[…]) and granulocyte macrophage colony-stimulating factor (GM-CSF) were measured using ELISA kits (eBioscience), following the manufacturer's instructions.

JEG-3 cells [3] = assay: Influence of PIF and P4 on expression of HLA class I molecules (flow cytometry, Western blotting, surface antigen quantification); details: 1 μg/ml P4, 24 hours
Protocol: The cells were then incubated with the HLA-G specific mouse monoclonal antibody MEM-G9m followed by incubation with Alexa Fluor 488 conjugated antibody preparations. Fluorescence was detected by using BD Accuri C6 flow cytometer. The data was analyzed using a Flowing Software V2.5.1. […] Error bar indicates standard deviation from the mean. Statistical analysis was performed with SigmaPlot software. One way Analysis of Variance was employed to test the significance of differences among groups.
The collected cells were further tested for expression for class I HLA molecules by using specific monoclonal antibodies.
Treated and untreated JEG-3 cells, following exposure to test agents were detached, counted, and pelleted as described previously [14]. […] To quantify the final concentration of the proteins we used the Bradford assay following the previously described protocol with some modifications [15]. […] Five μl of each protein sample was then diluted 1:1 with PBS and incubated with the reading reagent at room temperature for 5 min. Finally, the protein concentration was determined using a spectrophotometer, extrapolating each absorbance value over the previously created standard curve. […] A pre-stained standard protein marker (Li-Cor Bioscience) was also loaded onto the gel and run parallel to the protein samples to be analyzed. […]

[4] = P4 1 μg/ml or PIF 200 nM, 24 hours

Structure (SMILES): CC(=O)[C@H]1CC[C@H]2[C@@H]3CCC4=CC(=O)CC[C@]4(C)[C@H]3CC[C@]12C [P4, Progesterone]
- Average Normalized Volumes, ATP5B (spot 71) (JEG-3 cells [1]; [4]): 283.644
- Average Normalized Volumes, BBB (spot 92) (JEG-3 cells [1]; [4]): 544.421
- Average Normalized Volumes, CD59 (spot 51) (JEG-3 cells [1]; [4]): 388.079
- Average Normalized Volumes, CLIC3 (spot 69) (JEG-3 cells [1]; [4]): 220.958
- Average Normalized Volumes, DCBD2 (spot 67) (JEG-3 cells [1]; [4]): 413.865
- Average Normalized Volumes, EGFR (spot 30) (JEG-3 cells [1]; [4]): 313.949
- Average Normalized Volumes, FOXP3 (spot 98) (JEG-3 cells [1]; [4]): 1035.457
- Average Normalized Volumes, HLAG (spot 89) (JEG-3 cells [1]; [4]): 961.078
- Average Normalized Volumes, HS74L (spot 8) (JEG-3 cells [1]; [4]): 407.206
- Average Normalized Volumes, HSP71 (spot 2) (JEG-3 cells [1]; [4]): 328.658
- Average Normalized Volumes, LMNA (spot 34) (JEG-3 cells [1]; [4]): 276.712
- Average Normalized Volumes, PDIA3 (spot 24) (JEG-3 cells [1]; [4]): 425.280
- Average Normalized Volumes, PRDX2 (spot 66) (JEG-3 cells [1]; [4]): 144.399
- Average Normalized Volumes, PRGR (spot 55) (JEG-3 cells [1]; [4]): 277.710
- Average Normalized Volumes, ZSC21 / TTP (spot 32) (JEG-3 cells [1]; [4]): 123.015
- number of differentially expressed proteins up-regulated (of 19) (JEG-3 cells [1]; hierarchical clustering, vs control cells): five
- IFN-γ secretion (JEG-3 cells [2]): 10 pg/mL
- TNF-α secretion (JEG-3 cells [2]): 1 pg/mL
- GM-CSF secretion (JEG-3 cells [2]; PIF 200 nM, mean ± SEM): 310 ± 36.3 pg/mL
- IL-1β secretion (JEG-3 cells [2]; PIF 200 nM, mean ± SEM): 334 ± 27.7 pg/mL
- IL-8 secretion (JEG-3 cells [2]; PIF 200 nM, mean ± SEM): 685 ± 58.2 pg/mL
- TGF-β1 secretion (JEG-3 cells [2]; PIF 200 nM, mean ± SEM): 398 ± 32.4 pg/mL
- levels of HLA-G, -E, -F and -C (JEG-3 cells [3]): increased levels of HLA-G, -E, -F and -C
